PubChem BioAssay (NCI)
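Compound exposure: 48 hours, 5 concentrations, 96-well plates. GI50: concentration for 50% inhibition of growth. TGI: concentration producing complete growth inhibition.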

Tests used:
Assay in all cases: NCI tumour cell line growth inhibition, 48 h
OVCAR-3 ovarian = tested on: OVCAR-3 ovarian
COLO 205 colon = tested on: COLO 205 colon
SF-539 CNS = tested on: SF-539 CNS
CAKI-1 renal = tested on: CAKI-1 renal
OVCAR-5 ovarian = tested on: OVCAR-5 ovarian
HT29 colon = tested on: HT29 colon
A549 NSCLC = tested on: A549 NSCLC
MDA-MB-231 breast = tested on: MDA-MB-231 breast
MDA-MB-435 = tested on: MDA-MB-435
HCT-116 colon = tested on: HCT-116 colon
NCI-H226 lung = tested on: NCI-H226 lung
SN12C renal = tested on: SN12C renal
SNB-75 CNS = tested on: SNB-75 CNS
HOP-92 NSCLC = tested on: HOP-92 NSCLC
SNB-19 CNS = tested on: SNB-19 CNS
PC-3 prostate = tested on: PC-3 prostate
SW-620 colon = tested on: SW-620 colon
NCI-H23 lung = tested on: NCI-H23 lung
EKVX NSCLC = tested on: EKVX NSCLC
SF-295 CNS = tested on: SF-295 CNS
DU-145 prostate = tested on: DU-145 prostate
KM12 colon = tested on: KM12 colon
RXF 393 renal = tested on: RXF 393 renal
OVCAR-4 ovarian = tested on: OVCAR-4 ovarian
M14 melanoma = tested on: M14 melanoma
OVCAR-8 ovarian = tested on: OVCAR-8 ovarian
IGROV1 ovarian = tested on: IGROV1 ovarian
SF-268 CNS = tested on: SF-268 CNS
TK-10 renal = tested on: TK-10 renal
SK-MEL-5 melanoma = tested on: SK-MEL-5 melanoma
UO-31 renal = tested on: UO-31 renal
ACHN renal = tested on: ACHN renal
HCT-15 colon = tested on: HCT-15 colon
NCI/ADR-RES ovarian = tested on: NCI/ADR-RES ovarian
SK-MEL-28 melanoma = tested on: SK-MEL-28 melanoma
U251 CNS = tested on: U251 CNS
RPMI-8226 leukemia = tested on: RPMI-8226 leukemia
BT-549 breast = tested on: BT-549 breast
LOX IMVI melanoma = tested on: LOX IMVI melanoma
HCC-2998 colon = tested on: HCC-2998 colon
MOLT-4 leukemia = tested on: MOLT-4 leukemia
SK-OV-3 ovarian = tested on: SK-OV-3 ovarian
A498 renal = tested on: A498 renal
MALME-3M melanoma = tested on: MALME-3M melanoma
HOP-62 NSCLC = tested on: HOP-62 NSCLC
UACC-257 melanoma = tested on: UACC-257 melanoma
SR leukemia = tested on: SR leukemia
SK-MEL-2 melanoma = tested on: SK-MEL-2 melanoma
MCF7 breast = tested on: MCF7 breast
NCI-H522 lung = tested on: NCI-H522 lung
786-0 renal = tested on: 786-0 renal
K-562 leukemia = tested on: K-562 leukemia
UACC-62 melanoma = tested on: UACC-62 melanoma
HL-60(TB) leukemia = tested on: HL-60(TB) leukemia
NCI-H460 lung = tested on: NCI-H460 lung
CCRF-CEM leukemia = tested on: CCRF-CEM leukemia

`CCC1(c2ccc(N3C(=O)c4ccccc4C3=O)cc2)CCC(=O)NC1=O` (configuration not stated) gave a TGI (OVCAR-3 ovarian) greater than 10 µM, a TGI (COLO 205 colon) greater than 10 µM and a TGI (SF-539 CNS) greater than 10 µM. For the same compound, the TGI (CAKI-1 renal) was greater than 10 µM, the TGI (OVCAR-5 ovarian) was greater than 10 µM and the TGI (HT29 colon) was greater than 10 µM. The TGI (A549 NSCLC) was greater than 10 µM, the TGI (MDA-MB-231 breast) was greater than 10 µM and the TGI (MDA-MB-435) was greater than 10 µM. For the same compound, the TGI (HCT-116 colon) was greater than 10 µM, the TGI (NCI-H226 lung) was greater than 10 µM and the TGI (SN12C renal) was greater than 10 µM. The TGI (SNB-75 CNS) was greater than 10 µM, the TGI (HOP-92 NSCLC) was greater than 10 µM and the TGI (SNB-19 CNS) was greater than 10 µM. For the same compound, the TGI (PC-3 prostate) was greater than 10 µM, the TGI (SW-620 colon) was greater than 10 µM and the TGI (NCI-H23 lung) was greater than 10 µM. The TGI (EKVX NSCLC) was greater than 10 µM, the TGI (SF-295 CNS) was greater than 10 µM and the TGI (DU-145 prostate) was greater than 10 µM. For the same compound, the TGI (KM12 colon) was greater than 10 µM, the TGI (RXF 393 renal) was greater than 10 µM and the TGI (OVCAR-4 ovarian) was greater than 10 µM. The TGI (M14 melanoma) was greater than 10 µM, the TGI (OVCAR-8 ovarian) was greater than 10 µM and the TGI (IGROV1 ovarian) was greater than 10 µM. For the same compound, the TGI (SF-268 CNS) was greater than 10 µM, the TGI (TK-10 renal) was greater than 10 µM and the TGI (SK-MEL-5 melanoma) was greater than 10 µM. The TGI (UO-31 renal) was greater than 10 µM, the TGI (ACHN renal) was greater than 10 µM and the TGI (HCT-15 colon) was greater than 10 µM. The TGI (NCI/ADR-RES ovarian) was greater than 10 µM, the TGI (SK-MEL-28 melanoma) was greater than 10 µM and the TGI (U251 CNS) was greater than 10 µM.
With `Cn1ccc(=O)c2c(O)c3ccccc3c(O)c21` the GI50 (RPMI-8226 leukemia) was 34.5 µM, the TGI (RPMI-8226 leukemia) was greater than 100 µM and the GI50 (OVCAR-3 ovarian) was greater than 100 µM. For the same compound, the TGI (OVCAR-3 ovarian) was greater than 100 µM, the GI50 (COLO 205 colon) was 56.9 µM and the TGI (COLO 205 colon) was greater than 100 µM. It also gave a GI50 (SF-539 CNS) greater than 82.3 µM, a TGI (SF-539 CNS) greater than 100 µM and a GI50 (BT-549 breast) greater than 100 µM. For the same compound, the TGI (BT-549 breast) was greater than 100 µM, the GI50 (LOX IMVI melanoma) was 52.7 µM and the TGI (LOX IMVI melanoma) was greater than 100 µM. The GI50 (HCC-2998 colon) was 20.3 µM, the TGI (HCC-2998 colon) was greater than 100 µM and the GI50 (CAKI-1 renal) was 57 µM. It also gave a TGI (CAKI-1 renal) greater than 100 µM, a GI50 (OVCAR-5 ovarian) greater than 100 µM and a TGI (OVCAR-5 ovarian) greater than 100 µM. The GI50 (MOLT-4 leukemia) was 80.9 µM, the TGI (MOLT-4 leukemia) was greater than 100 µM and the GI50 (HT29 colon) was 99.9 µM. For the same compound, the TGI (HT29 colon) was greater than 100 µM, the GI50 (SK-OV-3 ovarian) was greater than 94.2 µM and the TGI (SK-OV-3 ovarian) was greater than 100 µM. The GI50 (A498 renal) was 20.2 µM, the TGI (A498 renal) was greater than 100 µM and the GI50 (A549 NSCLC) was greater than 93.1 µM. For the same compound, the TGI (A549 NSCLC) was greater than 100 µM, the GI50 (MDA-MB-231 breast) was 99.1 µM and the TGI (MDA-MB-231 breast) was greater than 100 µM. For the same compound, the GI50 (MDA-MB-435) was greater than 100 µM, the TGI (MDA-MB-435) was greater than 100 µM and the GI50 (HCT-116 colon) was 42.2 µM. For the same compound, the TGI (HCT-116 colon) was greater than 100 µM, the GI50 (MALME-3M melanoma) was greater than 100 µM and the TGI (MALME-3M melanoma) was greater than 100 µM. It also gave a GI50 (HOP-62 NSCLC) of 64.5 µM, a TGI (HOP-62 NSCLC) greater than 100 µM and a GI50 (NCI-H226 lung) greater than 44.6 µM. For the same compound, the TGI (NCI-H226 lung) was greater than 100 µM, the GI50 (SN12C renal) was 78.1 µM and the TGI (SN12C renal) was greater than 100 µM. For the same compound, the GI50 (UACC-257 melanoma) was greater than 100 µM, the TGI (UACC-257 melanoma) was greater than 100 µM and the GI50 (SNB-75 CNS) was greater than 100 µM. For the same compound, the TGI (SNB-75 CNS) was greater than 100 µM, the GI50 (HOP-92 NSCLC) was greater than 100 µM and the TGI (HOP-92 NSCLC) was greater than 100 µM. The GI50 (SR leukemia) was 44.5 µM, the TGI (SR leukemia) was greater than 100 µM and the GI50 (SNB-19 CNS) was greater than 40.2 µM. For the same compound, the TGI (SNB-19 CNS) was greater than 100 µM, the GI50 (SK-MEL-2 melanoma) was greater than 100 µM and the TGI (SK-MEL-2 melanoma) was greater than 100 µM. It also gave a GI50 (MCF7 breast) greater than 100 µM, a TGI (MCF7 breast) greater than 100 µM and a GI50 (PC-3 prostate) greater than 26.6 µM. It also gave a TGI (PC-3 prostate) greater than 100 µM, a GI50 (SW-620 colon) of 59.9 µM and a TGI (SW-620 colon) greater than 100 µM. For the same compound, the GI50 (NCI-H23 lung) was greater than 100 µM, the TGI (NCI-H23 lung) was greater than 100 µM and the GI50 (EKVX NSCLC) was greater than 100 µM. The TGI (EKVX NSCLC) was greater than 100 µM, the GI50 (SF-295 CNS) was 64.3 µM and the TGI (SF-295 CNS) was greater than 100 µM. The GI50 (NCI-H522 lung) was greater than 94 µM, the TGI (NCI-H522 lung) was greater than 100 µM and the GI50 (DU-145 prostate) was greater than 100 µM. For the same compound, the TGI (DU-145 prostate) was greater than 100 µM, the GI50 (KM12 colon) was greater than 70.1 µM and the TGI (KM12 colon) was greater than 100 µM. For the same compound, the GI50 (RXF 393 renal) was greater than 100 µM, the TGI (RXF 393 renal) was greater than 100 µM and the GI50 (OVCAR-4 ovarian) was greater than 100 µM. The TGI (OVCAR-4 ovarian) was greater than 100 µM, the GI50 (786-0 renal) was greater than 100 µM and the TGI (786-0 renal) was greater than 100 µM. It also gave a GI50 (M14 melanoma) of 97.5 µM, a TGI (M14 melanoma) greater than 100 µM and a GI50 (OVCAR-8 ovarian) greater than 58.6 µM. For the same compound, the TGI (OVCAR-8 ovarian) was greater than 100 µM, the GI50 (IGROV1 ovarian) was greater than 100 µM and the TGI (IGROV1 ovarian) was greater than 100 µM. The GI50 (K-562 leukemia) was greater than 100 µM, the TGI (K-562 leukemia) was greater than 100 µM and the GI50 (SF-268 CNS) was greater than 100 µM. For the same compound, the TGI (SF-268 CNS) was greater than 100 µM, the GI50 (TK-10 renal) was greater than 94.9 µM and the TGI (TK-10 renal) was greater than 100 µM. The GI50 (SK-MEL-5 melanoma) was 18.3 µM, the TGI (SK-MEL-5 melanoma) was greater than 52.4 µM and the GI50 (UO-31 renal) was greater than 100 µM. The TGI (UO-31 renal) was greater than 100 µM, the GI50 (UACC-62 melanoma) was greater than 88.6 µM and the TGI (UACC-62 melanoma) was greater than 100 µM. For the same compound, the GI50 (ACHN renal) was 35.3 µM, the TGI (ACHN renal) was greater than 100 µM and the GI50 (HCT-15 colon) was greater than 66.1 µM. It also gave a TGI (HCT-15 colon) greater than 100 µM, a GI50 (HL-60(TB) leukemia) greater than 100 µM and a TGI (HL-60(TB) leukemia) greater than 100 µM. For the same compound, the GI50 (NCI/ADR-RES ovarian) was greater than 100 µM, the TGI (NCI/ADR-RES ovarian) was greater than 100 µM and the GI50 (SK-MEL-28 melanoma) was greater than 100 µM. It also gave a TGI (SK-MEL-28 melanoma) greater than 100 µM, a GI50 (NCI-H460 lung) greater than 69 µM and a TGI (NCI-H460 lung) greater than 100 µM. It also gave a GI50 (U251 CNS) greater than 100 µM, a TGI (U251 CNS) greater than 100 µM and a TGI (CCRF-CEM leukemia) greater than 100 µM.
